Values quoted from earlier work as cited in patent publication US20120295796A1, “System and Method of Predicting Chemical Interaction and Functionality of Molecules” (VASSA INFORMATICS, priority 2010, published 2012).

Assays:
[1] = target: EGFR (Homo sapiens, UniProt P00533); conditions: search utilizing the entire binding site
[2] = target: T1, HMG-CoA reductase (Homo sapiens, UniProt P04035); conditions: hit of Lipitor search, not structurally similar to Lipitor
T1 sequence (P04035 426-888 limits assumed): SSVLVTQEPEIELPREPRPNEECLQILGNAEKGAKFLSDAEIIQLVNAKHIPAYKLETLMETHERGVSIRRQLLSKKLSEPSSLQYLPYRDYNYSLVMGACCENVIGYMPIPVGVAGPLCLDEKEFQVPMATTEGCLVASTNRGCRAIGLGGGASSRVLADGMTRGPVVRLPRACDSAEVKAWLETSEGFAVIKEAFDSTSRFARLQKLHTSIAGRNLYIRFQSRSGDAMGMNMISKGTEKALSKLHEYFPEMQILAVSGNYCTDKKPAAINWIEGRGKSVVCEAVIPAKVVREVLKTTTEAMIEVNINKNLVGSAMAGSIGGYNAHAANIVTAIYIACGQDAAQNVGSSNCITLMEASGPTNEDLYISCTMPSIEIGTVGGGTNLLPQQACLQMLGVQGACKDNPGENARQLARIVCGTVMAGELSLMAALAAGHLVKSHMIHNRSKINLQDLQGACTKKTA

Sequence of EGFR (P00533 25-1210): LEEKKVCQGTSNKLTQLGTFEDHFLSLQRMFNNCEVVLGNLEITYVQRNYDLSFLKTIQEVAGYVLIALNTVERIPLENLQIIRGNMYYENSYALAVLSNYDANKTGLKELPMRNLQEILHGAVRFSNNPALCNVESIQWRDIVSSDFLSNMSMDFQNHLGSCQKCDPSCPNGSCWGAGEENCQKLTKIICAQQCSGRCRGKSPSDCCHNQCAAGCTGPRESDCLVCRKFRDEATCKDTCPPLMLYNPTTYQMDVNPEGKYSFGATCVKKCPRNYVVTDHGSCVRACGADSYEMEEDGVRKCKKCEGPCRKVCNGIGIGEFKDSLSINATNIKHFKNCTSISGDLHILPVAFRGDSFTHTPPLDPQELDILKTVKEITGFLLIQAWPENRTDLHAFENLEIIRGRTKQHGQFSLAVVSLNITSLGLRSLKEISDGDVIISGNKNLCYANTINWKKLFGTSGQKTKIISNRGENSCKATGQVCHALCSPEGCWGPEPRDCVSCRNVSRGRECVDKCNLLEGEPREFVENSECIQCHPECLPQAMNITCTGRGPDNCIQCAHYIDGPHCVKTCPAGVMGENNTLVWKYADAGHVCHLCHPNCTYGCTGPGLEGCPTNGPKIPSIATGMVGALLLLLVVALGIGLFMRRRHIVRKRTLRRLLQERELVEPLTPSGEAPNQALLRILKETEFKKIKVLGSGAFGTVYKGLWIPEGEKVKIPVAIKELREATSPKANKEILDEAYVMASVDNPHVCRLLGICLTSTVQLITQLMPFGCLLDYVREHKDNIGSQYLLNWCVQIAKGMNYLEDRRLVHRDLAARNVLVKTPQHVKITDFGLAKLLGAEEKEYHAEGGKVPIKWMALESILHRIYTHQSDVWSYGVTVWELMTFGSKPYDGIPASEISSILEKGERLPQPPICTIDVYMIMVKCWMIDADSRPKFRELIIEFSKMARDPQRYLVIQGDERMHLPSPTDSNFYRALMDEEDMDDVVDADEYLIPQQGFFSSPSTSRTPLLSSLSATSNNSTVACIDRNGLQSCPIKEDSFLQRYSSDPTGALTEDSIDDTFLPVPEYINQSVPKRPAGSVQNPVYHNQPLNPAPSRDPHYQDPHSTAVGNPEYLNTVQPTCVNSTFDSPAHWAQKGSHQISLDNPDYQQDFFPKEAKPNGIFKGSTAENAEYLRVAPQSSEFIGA

Structure (SMILES) | binder status at the Tarceva binding site (ADP binding site) [1] | known binding to HMG-CoA reductase (search result category Known Binders) [2]
Nc1ncnc2c1ncn2[C@@H]1O[C@H](COP(=O)(O)OP(=O)(O)O)[C@@H](O)[C@H]1O [ADP] | already known or suspected as binders | –
Nc1ncnc2c1ncn2[C@@H]1O[C@H](COP(=O)(O)O)[C@@H](O)[C@H]1O [AMP] | already known or suspected as binders | –
Nc1ncnc2c1ncn2[C@@H]1O[C@H](COP(=O)(O)OP(=O)(O)OP(=O)(O)O)[C@@H](O)[C@H]1O [ATP] | already known or suspected as binders | –
CC(C)(COP(=O)(O)OP(=O)(O)OC[C@H]1O[C@@H](n2cnc3c(N)ncnc32)[C@H](O)[C@@H]1OP(=O)(O)O)[C@@H](O)C(=O)NCCC(=O)NCCS [Coenzyme A] | – | binds HinG-CoA reductase
